Results published in US20140271604A1, “HDAC Inhibitor Polymorphic Forms and Methods of Use” (priority 2013, published 2014).

Tests used:
tumors = details: cited from earlier work
[1] = Concentration of saturated AR42 stock solutions (anti-solvent addition crystallization); assay type: physicochemical; details: equilibrated 24 hours, filtered
Experimental: Tables 3-5 illustrate anti-solvent addition crystallization experiments conducted on the indicated Form. In this example, saturated solutions of AR42 were prepared in the following solvents: Acetone, 2-Butanone, Methanol, Ethanol, Isopropanol, Acetonitrile, 1,4-Dioxane and Dimethylformamide. Excess AR42 was added to the solvent and the suspension equilibrated for 24 hours. After equilibration, the suspension was filtered through a […] filter to remove particulate solids.
An equal volume of anti-solvent selected from the following list was added to 300 μL of the saturated solutions of AR42: Toluene, Nitrobenzene, Nitromethane, Water, n-Heptane, Cyclohexane. An additional 300 μL of anti-solvent was added if no precipitation occurred. Aliquots of 300 μL of anti-solvent were added until precipitation occurred or the total volume was 1,200 μL of anti-solvent. The solution was allowed to incubate for 60 minutes at room temperature in between the addition of anti-solvent. If no precipitation occurred after the last addition of anti-solvents, samples were incubated for 24 hours at 4° C. Samples in which precipitation occurred were centrifuged for 10 minutes at 3000 rpm to separate the liquid from the solid. The liquid phase was removed and the solid phase dried and analyzed by XRPD. The solutions in which no precipitation occurred were placed under deep vacuum and dried to completion. Solids were collected and analysed by XRPD.

[2] = Solubility assessment experiments in organic solvents; details: Table 1
Experimental: Solubility assessment experiments were carried out in a variety of solvents followed by storage in a climate chamber for 48 to 72 hours at 40 degrees centigrade and 75% relative humidity.

Structure (SMILES): CC(C)[C@H](C(=O)Nc1ccc(C(=O)NO)cc1)c1ccccc1 [AR-42, (S)—N-hydroxy-4-(3-methyl-2-phenylbutanamido)benzamide]
- Inhibitory effect in tumors (tumors; breast, prostate, ovarian, blood cell, liver, and brain tumors): demonstrated inhibitory effect
- Potency and activity compared to vorinostat (SAHA) (tumors; solid tumors and hematological malignancies): greater potency and activity
- Concentration (mg/mL) of saturated stock solution ([1]; stock solvent Acetone): 175.9 mg/mL
- Concentration (mg/mL) of saturated stock solution ([1]; stock solvent Acetonitrile): 13.5 mg/mL
- Concentration (mg/mL) of saturated stock solution ([1]; stock solvent Butanone 2-): 130.7 mg/mL
- Concentration (mg/mL) of saturated stock solution ([1]; stock solvent Dimethylformamide N,N-): 335 mg/mL
- Concentration (mg/mL) of saturated stock solution ([1]; stock solvent Dioxane, 1,4-): 46.8 mg/mL
- Concentration (mg/mL) of saturated stock solution ([1]; stock solvent Ethanol): 134.1 mg/mL
- Concentration (mg/mL) of saturated stock solution ([1]; stock solvent Propanol 2-): 227.8 mg/mL
- Concentration (mg/mL) of saturated stock solution ([1]; stock solvent methanol): 390.5 mg/mL
- Concentration ([2]; solvent Chloroform): <2000 µg/mL
- Concentration ([2]; solvent Nitromethane): 1000 µg/mL
- Concentration ([2]; solvent Toluene): <1000 µg/mL
- Concentration ([2]; solvent Trifluoroethanol, 2,2,2-): 7000 µg/mL
